Results: US8618095B2 (Rigel Pharmaceuticals, Inc., priority 2010, dated 2013)
Structures can show the parent of a compound that is named as a salt.

test system: Human mast cells (CHMC); experiment: LD Tryptase release assay in CHMC (mast cell activation induced by FcγR cross-linking); assay type: cell-based; conditions: Homo sapiens, Mast cell, anti-IgG stimulation, activity of tryptase released upon degranulation
Summary of the method: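 Mast cells derived from CD38-negative progenitors were preincubated 1 h at 37 °C with compound in HEPES-buffered saline (pH 7.4, 0.1% BSA, compound diluted in buffer with 2% MeOH/1% DMSO). Cells were then stimulated 60 min with anti-human IgG (final 1 μg/mL). Released tryptase was measured on Z-Ala-Lys-Arg-AMC (30 min, room temperature, 355/460 nm) to give the IC50.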

IC50 [µM]	SMILES
0.1 to 0.5	CC1(C)Oc2ccc(Nc3nc(Nc4cnc(N5CCOCC5)c(F)c4)ncc3F)nc2NC1=O [Compound 10, N4-(2,2-dimethyl-3,4-dihydro-3-oxo-2H-pyrido[3,2-b][1,4]oxazin-6-yl)-5-fluoro-N2-[5-fluoro-6-morpholinopyridin-3-yl]-2,4-pyrimidinediamine]
< 0.1	CCCN1C(=O)COc2ccc(Nc3nc(Nc4ccc(N5CCOCC5)c(C(F)(F)F)c4)ncc3F)nc21 [Compound 148, N4-(3,4-dihydro-3-oxo-4-propyl-2H-pyrido[3,2-b][1,4]oxazin-6-yl)-5-fluoro-N2-[4-morpholino-3-(trifluoromethyl)phenyl]-2,4-pyrimidinediamine]
0.1 to 0.5	CN(C)C[C@@H]1CN(c2ccc(Nc3ncc(F)c(Nc4ccc5c(n4)NC(=O)C(C)(C)O5)n3)cc2)CCO1 [Compound 122]
1 to 100	CC(C)OC1CCN(c2ccc(Nc3ncc(F)c(Nc4ccc5c(n4)NC(=O)C(C)(C)O5)n3)cc2)CC1 [Compound 86, N4-(2,2-dimethyl-3,4-dihydro-3-oxo-2H-pyrido[3,2-b][1,4]oxazin-6-yl)-5-fluoro-N2-[4-(4-isopropoxypiperidin-1-yl)phenyl]-2,4-pyrimidinediamine]
0.1 to 0.5	CC1(C)Oc2ccc(Nc3nc(Nc4ccc(N5CCC(N6CCOCC6)CC5)cc4)ncc3F)nc2NC1=O [Compound 87, N4-(2,2-dimethyl-3,4-dihydro-3-oxo-2H-pyrido[3,2-b][1,4]oxazin-6-yl)-5-fluoro-N2-[4-(4-morpholinopiperidin-1-yl)phenyl]-2,4-pyrimidinediamine]
< 0.1	CC1(C)Oc2ccc(Nc3nc(Nc4ccc(N5C[C@@H]6C[C@H]5CO6)cc4)ncc3F)nc2NC1=O [Compound 38, N4-(2,2-dimethyl-3,4-dihydro-3-oxo-2H-pyrido[3,2-b][1,4]oxazin-6-yl)-5-fluoro-N2-[4-((1S,4S)-5-oxa-2-aza-bicyclo[2.2.1]heptan-2-yl)phenyl]-2,4-pyrimidinediamine]
0.1 to 0.5	O=C1Nc2nc(Nc3nc(Nc4ccc(N5CCOCC5)cc4)ncc3F)ccc2OC12CCC2 [Compound 123, 5-Fluoro-N2-(4-morpholinophenyl)-N4-(3′-oxo-3′,4′-dihydrospiro[cyclobutane-1,2′-pyrido[3,2-b][1,4]oxazine]-6-yl)-2,4-pyrimidinediamine]
0.1 to 0.5	CC1(C)Oc2ccc(Nc3nc(Nc4ccc(N5CCC(N6CCOCC6)C5)nc4)ncc3F)nc2NC1=O (centres unmarked) [Compound 67, N4-(2,2-dimethyl-3,4-dihydro-3-oxo-2H-pyrido[3,2-b][1,4]oxazin-6-yl)-5-fluoro-N2-[6-(3-morpholinopyrrolidin-1-yl)pyridin-3-yl]-2,4-pyrimidinediamine]
< 0.1	[2H]C1([2H])OC([2H])([2H])C([2H])([2H])N(c2ccc(Nc3ncc(F)c(Nc4ccc5c(n4)NC(=O)CO5)n3)cc2)C1([2H])[2H] [Compound 130, N4-(2,2-dimethyl-3,4-dihydro-3-oxo-2H-pyrido[3,2-b][1,4]oxazin-6-yl)-5-fluoro-N2-[4-(2,2,3,3,5,5,6,6-d8-morpholino)phenyl]-2,4-pyrimidinediamine]
< 0.1	[2H]C1([2H])OC([2H])([2H])C([2H])([2H])N(c2ccc(Nc3ncc(F)c(Nc4ccc5c(n4)NC(=O)C(C)(C)O5)n3)cc2)C1([2H])[2H] [Compound 131, N4-(2,2-dimethyl-3,4-dihydro-3-oxo-2H-pyrido[3,2-b][1,4]oxazin-6-yl)-5-fluoro-N2-[4-(2,2,3,3,5,5,6,6-d8-morpholino)phenyl]-2,4-pyrimidinediamine]
1 to 100	CC1(C)Oc2ccc(Nc3nc(Nc4cc(F)c(N5CCOCC5)c(F)c4)ncc3F)nc2NC1=O [Compound 31, N4-(2,2-dimethyl-3,4-dihydro-3-oxo-2H-pyrido[3,2-b][1,4]oxazin-6-yl)-5-fluoro-N2-[3,5-difluoro-4-morpholinophenyl]-2,4-pyrimidinediamine]
0.1 to 0.5	CC1(C)Oc2ccc(Nc3nc(Nc4ccc(N5CCC6(CCCO6)CC5)cc4)ncc3F)nc2NC1=O [Compound 156, N4-(2,2-dimethyl-3,4-dihydro-3-oxo-2H-pyrido[3,2-b][1,4]oxazin-6-yl)-5-fluoro-N2-[4-(1-oxa-8-azaspiro[4.5]decan-8-yl)phenyl]-2,4-pyrimidinediamine]
< 0.1	[2H]C1([2H])OC([2H])([2H])C([2H])([2H])N(c2ccc(Nc3ncc(F)c(Nc4ccc5c(n4)NC(=O)C(C)(C)O5)n3)cn2)C1([2H])[2H] [Compound 107, N4-(2,2-dimethyl-3,4-dihydro-3-oxo-2H-pyrido[3,2-b][1,4]oxazin-6-yl)-5-fluoro-N2-[6-(2,2,3,3,5,5,6,6-d8-morpholino)pyridin-3-yl]-2,4-pyrimidinediamine]
< 0.1	C[C@H]1CN(c2ccc(Nc3ncc(F)c(Nc4ccc5c(n4)NC(=O)CO5)n3)cc2)CCO1 [Compound 80]
1 to 100	CC1(C)CN(c2ncc(Nc3ncc(F)c(Nc4ccc5c(n4)NC(=O)C(C)(C)O5)n3)cc2F)CCO1 [Compound 15, N4-(2,2-dimethyl-3,4-dihydro-3-oxo-2H-pyrido[3,2-b][1,4]oxazin-6-yl)-5-fluoro-N2-[5-fluoro-6-(2,2-dimethylmorpholino)pyridin-3-yl]-2,4-pyrimidinediamine]
< 0.1	Cc1cc(Nc2ncc(F)c(Nc3ccc4c(n3)NC(=O)C(C)(C)O4)n2)ccc1N1C[C@@H]2C[C@H]1CO2 [Compound 24, N4-(2,2-dimethyl-3,4-dihydro-3-oxo-2H-pyrido[3,2-b][1,4]oxazin-6-yl)-5-fluoro-N2-[3-methyl-4-((1S,4S)-5-oxa-2-aza-bicyclo[2.2.1]heptan-2-yl)phenyl]-2,4-pyrimidinediamine]
0.1 to 0.5	CC1(C)Oc2ccc(Nc3nc(Nc4ccc(N5CCOCC5=O)cc4)ncc3F)nc2NC1=O [Compound 40, N4-(2,2-dimethyl-3,4-dihydro-3-oxo-2H-pyrido[3,2-b][1,4]oxazin-6-yl)-5-fluoro-N2-[4-(morpholin-2-one)phenyl]-2,4-pyrimidinediamine]
< 0.1	O=C1COc2ccc(Nc3nc(Nc4ccc(C5CCOCC5)cc4)ncc3F)nc2N1 [Compound 46, N4-(3,4-dihydro-3-oxo-2H-pyrido[3,2-b][1,4]oxazin-6-yl)-5-fluoro-N2-[4-tetrahydropyranophenyl]-2,4-pyrimidinediamine]
< 0.1	COc1cc(Nc2ncc(F)c(Nc3ccc4c(n3)NC(=O)C(C)(C)O4)n2)ccc1N1CCOCC1 [Compound 27, N4-(2,2-dimethyl-3,4-dihydro-3-oxo-2H-pyrido[3,2-b][1,4]oxazin-6-yl)-5-fluoro-N2-[3-methoxy-4-morpholinophenyl]-2,4-pyrimidinediamine]
0.1 to 0.5	C[C@@H]1COCCN1c1ccc(Nc2ncc(F)c(Nc3ccc4c(n3)NC(=O)CO4)n2)cc1 [Compound 82]
< 0.1	Cc1cc(Nc2ncc(F)c(Nc3ccc4c(n3)NC(=O)CO4)n2)cnc1N1CCOCC1 [Compound 11, N4-(3,4-dihydro-3-oxo-2H-pyrido[3,2-b][1,4]oxazin-6-yl)-5-fluoro-N2-[5-methyl-6-morpholinopyridin-3-yl]-2,4-pyrimidinediamine]
1 to 100	CC(C)Oc1cc(Nc2ncc(F)c(Nc3ccc4c(n3)NC(=O)C(C)(C)O4)n2)ccc1N1CCOCC1 [Compound 45, N4-(2,2-dimethyl-3,4-dihydro-3-oxo-2H-pyrido[3,2-b][1,4]oxazin-6-yl)-5-fluoro-N2-[3-(2-propoxy)-4-morpholinophenyl]-2,4-pyrimidinediamine]
> 100	CC1(C)Oc2ccc(Nc3nc(Nc4ccc(N5CCOCC5)c(OC(F)(F)F)c4)ncc3F)nc2NC1=O [Compound 28, N4-(2,2-dimethyl-3,4-dihydro-3-oxo-2H-pyrido[3,2-b][1,4]oxazin-6-yl)-5-fluoro-N2-[3-trifluoromethoxy-4-morpholinophenyl]-2,4-pyrimidinediamine]
< 0.1	CN(c1ccc(Nc2ncc(F)c(Nc3ccc4c(n3)NC(=O)C(C)(C)O4)n2)cn1)C1CCOCC1 [Compound 143, N4-(2,2-dimethyl-3,4-dihydro-3-oxo-2H-pyrido[3,2-b][1,4]oxazin-6-yl)-5-fluoro-N2-[6-(methyl(tetrahydro-2H-pyran-4-yl)amino)pyridin-3-yl]-2,4-pyrimidinediamine]
0.1 to 0.5	C[C@@H]1CN(c2ccc(Nc3ncc(F)c(Nc4ccc5c(n4)NC(=O)C(C)(C)O5)n3)cn2)CCO1 [Compound 7, N4-(2,2-dimethyl-3,4-dihydro-3-oxo-2H-pyrido[3,2-b][1,4]oxazin-6-yl)-5-fluoro-N2-1-2,4-pyrimidinediamine]
0.1 to 0.5	CC1(C)Oc2ccc(Nc3nc(Nc4ccc(N5CCO[C@H](CCO)C5)cc4)ncc3F)nc2NC1=O (stereo in doubt) [Compound 126, N4-(2,2-dimethyl-3,4-dihydro-3-oxo-2H-pyrido[3,2-b][1,4]oxazin-6-yl)-5-fluoro-N2-[4-((2-hydroxyethyl)morpholino)phenyl]-2,4-pyrimidinediamine]

same assay, conditions: anti-IgG stimulation, activity of tryptase released upon degranulation

SMILES	IC50 [µM]
CC1(C)Oc2ccc(Nc3nc(Nc4ccc(N5CCOCC5)c(F)c4)ncc3F)nc2N(COP(=O)(O)O)C1=O [Compound 113, N4-(2,2-dimethyl-3,4-dihydro-4-[(dihydrogenphosphonoxy)methyl]-3-oxo-2H-pyrido[3,2-b][1,4]oxazin-6-yl)-5-fluoro-N2-(3-fluoro-4-morpholinophenyl)-2,4-pyrimidinediamine disodium salt]	1 to 100
CC1(C)Oc2ccc(Nc3nc(Nc4ccc(N5CCOCC5)nc4)ncc3F)nc2NC1=O [Compound 141, N4-(2,2-dimethyl-3,4-dihydro-3-oxo-2H-pyrido[3,2-b][1,4]oxazin-6-yl)-5-fluoro-N2-[6-morpholinopyridin-3-yl]-2,4-pyrimidinediamine benzenesulfonic acid salt]	0.1 to 0.5
Cc1cc(Nc2ncc(F)c(Nc3ccc4c(n3)N(COP(=O)(O)O)C(=O)C(C)(C)O4)n2)ccc1N1CCOCC1 [Compound 112, N4-(2,2-dimethyl-3,4-dihydro-4-[(dihydrogenphosphonoxy)methyl]-3-oxo-2H-pyrido[3,2-b][1,4]oxazin-6-yl)-5-fluoro-N2-(3-methyl-4-morpholinophenyl)-2,4-pyrimidinediamine disodium salt]	0.5 to 1
